The results in this text go back to patent US5763587A, “Process for the synthesis of amikacin” (Gist Brocades Italy Spa, priority 1987, dated 1998).

The subject of one series is mice. Briefly: Comparison of death rate, toxicity and acute general tolerability in mice by intravenous administration. The series is classed as in vivo. The text has this:
(§1) Some experiments have been thus carried out for the comparison of the death rate, toxicity and acute general tolerability, between the product available in the market from Bristol Myers (BB-K8), amikacin produced according to the synthesis of the present invention and the potential impurities (BB K11, BB K29 and the diacylate with L-HABA at N-1 and N-3"), in mice by intravenous administration (caudal vein) to groups of 10 animals. The LD50 values have been calculated by the Finney-Probits method.

Assay in series [1]: as above
To be noted: mouse, in vivo, iv, mice, intravenous (caudal vein), groups of 10 animals, Finney-Probits method. It counts as in vivo.
Description: as §1

The term LD50 denotes the dose at which mortality reaches 50%. Low readings indicate a more toxic substance, high ones a less toxic substance. Consider `NCC[C@H](O)C(=O)N[C@@H]1[C@@H](O)[C@@H](O[C@@H]2[C@@H](O)[C@H](O[C@H]3O[C@H](CN)[C@@H](O)[C@H](O)[C@H]3O)[C@@H](N)C[C@H]2NC(=O)[C@@H](O)CCN)O[C@H](CO)[C@H]1O` [Diacylate (N-1 and N-3")], for which the “toxicity compared with BB-K29 (in words)” value in the series on mice is reported as “lower”. This compound also gave an LD50 in series [1] of 268 mg/kg. As to `NCC[C@H](O)C(=O)N[C@@H]1C[C@H](N)[C@@H](O[C@H]2O[C@H](CN)[C@@H](O)[C@H](O)[C@H]2O)[C@H](O)[C@H]1O[C@H]1O[C@H](CO)[C@@H](O)[C@H](N)[C@H]1O` [Amikacin, 0-3-amino-3-desoxy-alpha-D-glucopyranosyl-(1→6)-0-[6--amino-6-desoxy-alpha-D-glucopyranosyl-(1→)]-N^1-(4-amino-2-hydroxy-1-oxybutyl)-2-desoxy-D-streptamine], the LD50 with mice (mice, intravenous (caudal vein), groups of 10 animals, Finney-Probits method) stood at 241 mg/kg. As for `NCC[C@H](O)C(=O)N[C@H]1C[C@@H](N)[C@H](O[C@H]2O[C@H](CO)[C@@H](O)[C@H](N)[C@H]2O)[C@@H](O)[C@@H]1O[C@H]1O[C@H](CN)[C@@H](O)[C@H](O)[C@H]1O` [BB-K29], in the series with mice, the “toxicity compared with amikacin (in words)” value is on record as “more toxic than amikacin”. Moreover, the LD50 in series [1] was found to be 126 mg/kg. Consider `NCC[C@H](O)C(=O)N[C@@H]1C[C@H](N)[C@@H](O[C@H]2O[C@H](CN)[C@@H](O)[C@H](O)[C@H]2O)[C@H](O)[C@H]1O[C@H]1O[C@H](CO)[C@@H](O)[C@H](N)[C@H]1O` [BB-K8 Bristol], for which the 50% lethal dose (LD50) in series [1] is 202 mg/kg. In the case of `NCC[C@H](O)C(=O)N[C@@H]1[C@@H](O)[C@@H](O[C@@H]2[C@@H](O)[C@H](O[C@H]3O[C@H](CN)[C@@H](O)[C@H](O)[C@H]3O)[C@@H](N)C[C@H]2N)O[C@H](CO)[C@H]1O` [BB-K11], in the series with mice, the “toxicity compared with BB-K29 (in words)” value is given as “lower”. The 50% lethal dose (LD50) in series [1] stood at 356 mg/kg.
